The values below come from patent publication EP2508526A1, “Spiroalkene carboxamide derivatives and their use as chemokine receptor modulators” (Ares Trading SA, priority 2011, dated 2012).

Where a name gives a salt, the structure may show the parent alone. Bounds are passed on as bounds.

The target of experiment [1] is T1, hCCR2b (Homo sapiens, UniProt P41597).
T1 sequence (P41597 1-360 isoform P41597-2): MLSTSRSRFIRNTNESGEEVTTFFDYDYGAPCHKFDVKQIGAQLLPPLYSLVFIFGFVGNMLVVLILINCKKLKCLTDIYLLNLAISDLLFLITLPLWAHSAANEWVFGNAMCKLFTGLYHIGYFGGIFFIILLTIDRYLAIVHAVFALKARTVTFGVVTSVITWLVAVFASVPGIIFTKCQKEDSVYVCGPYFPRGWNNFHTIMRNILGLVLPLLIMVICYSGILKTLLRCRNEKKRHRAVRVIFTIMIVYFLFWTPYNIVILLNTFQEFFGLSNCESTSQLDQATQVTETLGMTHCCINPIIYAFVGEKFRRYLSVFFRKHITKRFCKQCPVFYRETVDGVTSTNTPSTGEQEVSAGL
Kind of experiment: CCR2 binding assay ([125I]MCP-1, SPA, CHO cell membranes). Also noted: expressed in transfected cells; host or cells: CHO cells (membrane preparation). Conditions: membranes from CHO cells expressing hCCR2b, 50 pM [125I]MCP-1; read-out: Binding hCCR2 (Ki). Put shortly: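 CHO membranes expressing hCCR2b (1–5 µg/well) with 50 pM [125I]MCP-1 and WGA SPA beads in 50 mM HEPES pH 7.4, 5 mM MgCl2, 1 mM CaCl2, 0.1% BSA, 1% DMSO; 90 min RT with agitation. Bound counts on scintillation counter; nonspecific defined by 1000-fold excess unlabeled compound.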

For experiment [2], the target named is T1, hCCR2b. As to the kind of experiment: Chemotaxis of L1.2-hCCR2b cells towards MCP-1 P8A. Conditions: MCP-1 P8A at EC80, 4-hours incubation. Also noted: expressed in transfected cells; host or cells: L1.2 cells (murine pre-B cell line). The experiment is classed as cell-based. An excerpt:
L1.2 cells, a murine pre-LB cellline, were transfected with the human CCR2b receptor for use in the transmigration of L1.2 hCCR2b on the chemotaxis system: ChemotX® provided by Neuroprobes (8µm pore size). Monocyte Chemoattractant Protein-1 (MCP-1) stimulation leads to activate the CCR2 receptor and inititates a cascade of events including chemotaxis. MCP-1 ligand will be replaced by MCP-1 P8A protein with genetic modifications to prevent the oligomerization of the protein. L1.2-hCCR2b are incubated in white RPMI 1640, 5% v/v Heat inactivated FCS, 1% v/v penicillin-streptomycin supplemented with 5 mM Butyrate overnight to enhance receptor expression level at the cell surface. L1.2-hCCR2b cells and compounds in DMSO (1% final) are preincubated 15 min in chemotaxis medium and placed in the Upper Chamber of the chemotaxis system. The MCP-1 P8A initially present at its EC80 (concentration of MCP-1 P8A which allows 80% of cell migration) in the Lower Chamber (with compounds to avoid any compound gradient) diffuses through the pores of the membrane and interacts with the CCR2 receptor of cells present in the upper chamber. The tested compounds can also potentially interact with CCR2 receptor and therefore inhibit the migration of the cells from the Upper Chamber to the Lower Chamber. After a 4-hours incubation time at 37°C, 5% CO2, a quantification of the cells which have migrated is performed using the Cyquant (Invitrogen) and a fluorescent reader as a Fluostar (exc: 485nm; emm: 520 nm). Specific migration is assessed by substracting the basal migration of cells without any stimulation. Chemotaxis data were analyzed using the Genedata Screener® software.

Turning to `CC1=C(C(=O)N2CCc3ccc(C(F)(F)F)cc3C2)C2(CCN(C3CCOCC3)CC2)OC1=O` [Compound 26, 3-methyl-8-(tetrahydro-2H-pyran-4-yl)-4-{[7-(trifluoromethyl)-3,4-dihydroisoquinolin-2(1H)-yl]carbony}-1-oxa-8-azaspiro[4.5]dec-3-en-2-one], the Ki on hCCR2b [1] and at hCCR2b [2] was < 0.05 µM in each case.

As to `CC1=C(C(=O)N2CCc3ccc(C(F)(F)F)cc3C2)C2(CCN(C(C)C)CC2)OC1=O` [Compound 62, 8-isopropyl-3-methyl-4-{[7-(trifluoromethyl)-3,4-dihydroisoquinolin-2 (1H)-yl]carbonyl}-1-oxa-8-azaspiro[4.5]dec-3-en-2-one], the Ki at hCCR2b [1] and on hCCR2b [2] was < 0.05 µM each time.

Take `CC1=C(C(=O)N2COc3ccc(C(F)(F)F)cc3C2)C2(CCN(C(C)C)CC2)OC1=O` [Compound 66, 8-isopropyl-3-methyl-4-{[6-(trifluoromethyl)-2H-1,3-benzoxazin-3(4H)-yl]carbonyl}-1-oxa-8-azaspiro[4.5]dec-3-en-2-one]: the Ki on hCCR2b [1] and at hCCR2b [2] was < 0.05 µM throughout.

On to `CCN1CCC2(CC1)OC(=O)C(C)=C2C(=O)N1CCN(c2cccc(C(F)(F)F)c2)CC1` [Compound 74, 8-ethyl-3-methyl-4-({4-[3-(trifluoromethyl)phenyl]piperazin-1-yl}carbonyl)-1-oxa-8-azaspiro[4.5]dec-3-en-2-one], for which the Ki on hCCR2b [1] and at hCCR2b [2] was < 0.05 µM throughout.

Consider `CCN1CCC2(CC1)OC(=O)C(C)=C2C(=O)N1CCc2ccc(C(F)(F)F)cc2C1` [Compound 97, 8-ethyl-3-methyl-4-{[7-(trifluoromethyl)-3,4-dihydroisoquinolin-2(1H)-yl]carbonyl}-1-oxa-8-azaspiro[4.5]dec-3-en-2-one], for which the Ki on hCCR2b [1] and at hCCR2b [2] was < 0.05 µM each time.

As to `CC1=C(C(=O)N2CCc3ncc(C(F)(F)F)cc3C2)C2(CCN(C(C)C)CC2)OC1=O` [Compound 115, 8-isopropyl-3-methyl-4-{[3-(trifluoromethyl)-7,8-dihydro-1,6-naphthyridin-6(5H)-yl]carbonyl}-1-oxa-8-azaspiro[4.5]dec-3-en-2-one], on hCCR2b [1], the Ki (commonly a measure of affinity in units of concentration, obtained from inhibition or displacement) is < 0.05 µM.

For `CC1=C(C(=O)N2CCc3ncc(C(F)(F)F)cc3C2)C2(CCN(CCF)CC2)OC1=O` [Compound 116, 8-(2-fluoroethyl)-3-methyl-4-{[3-(trifluoromethyl)-7,8-dihydro-1,6-naphthyridin-6(5H)-yl]carbonyl}-1-oxa-8-azaspiro[4.5]dec-3-en-2-one], the Ki at hCCR2b [1] is < 0.05 µM.

For `CC1=C(C(=O)N2CCN(c3cccc(C(F)(F)F)c3)CC2)C2(CCN(C(C)C)C2)OC1=O` (stereo not drawn) [Compound 117, 7-isopropyl-3-methyl-4-({4-[3-(trifluoromethyl)phenyl]piperazin-1-yl}carbonyl)-1-oxa-7-azaspiro[4.4]non-3-en-2-one], at hCCR2b [1], the Ki is < 0.05 µM.

Turning to `CCN1CCC2(C1)OC(=O)C(C)=C2C(=O)N1CCN(c2cccc(C(F)(F)F)c2)CC1` (stereo not drawn) [Compound 118, 7-ethyl-3-methyl-4-({4-[3-(trifluoromethyl)phenyl]piperazin-1-yl}carbonyl)-1-oxa-7-azaspiro[4.4]non-3-en-2-one], the Ki on hCCR2b [1] lay within 0.05 to 0.1 µM.

For `CC1=C(C(=O)N2CCc3ncc(C(F)(F)F)cc3C2)C2(CCN(C3CCOCC3)CC2)OC1=O` [Compound 119, 3-methyl-8-(tetrahydro-2H-pyran-4-yl)-4-{[3-(trifluoromethyl)-7,8-dihydro-1,6-naphthyridin-6(5H)-yl]carbonyl}-1-oxa-8-azaspiro[4.5]dec-3-en-2-one], the Ki at hCCR2b [1] is < 0.05 µM.

For `CCN1CCCC2(CC1)OC(=O)C(C)=C2C(=O)N1CCc2ccc(C(F)(F)F)cc2C1` (stereo not drawn) [Compound 120, 8-ethyl-3-methyl-4-{[7-(trifluoromethyl)-3,4-dihydroisoquinolin-2(1H)-yl]carbonyl}-1-oxa-8-azaspiro[4.6]undec-3-en-2-one], on hCCR2b [1], the Ki was < 0.05 µM.

With `CCN1CCCC2(CC1)OC(=O)C(C)=C2C(=O)N1CCN(c2cccc(C(F)(F)F)c2)CC1` (stereo not drawn) [Compound 121, 8-ethyl-3-methyl-4-({4-[3-(trifluoromethyl)phenyl]piperazin-1-yl}carbonyl)-1-oxa-8-azaspiro[4.6]undec-3-en-2-one], the Ki at hCCR2b [1] was < 0.05 µM.

For the compound `CC1=C(C(=O)N2CCc3ncc(C(F)(F)F)cc3C2)C2(CCN(C)CC2)OC1=O` [Compound 122, 3,8-dimethyl-4-{[3-(trifluoromethyl)-7,8-dihydro-1,6-naphthyridin-6(5H)-yl]carbonyl}-1-oxa-8-azaspiro[4.5]dec-3-en-2-one], the Ki on hCCR2b [1] is < 0.05 µM.

For `CC1=C(C(=O)N2CCN(c3cccc(C(F)(F)F)c3)CC2)C2(CCNCC2)OC1=O` [Example 1, 3-methyl-4-({4-[3-(trifluoromethyl)phenyl]piperazin-1-yl}carbonyl)-1-oxa-8-azaspiro[4.5]dec-3-en-2-one, dihydrochloride salt], at hCCR2b [1], the Ki fell in the range of 0.1 to 0.5 µM.

Turning to `COCCCN1CCC2(CC1)OC(=O)C(C)=C2C(=O)N1CCN(c2cccc(C(F)(F)F)c2)CC1` [Example 2, 8-(3-methoxypropyl)-3-methyl-4-({4-[3-(trifluoromethyl)phenyl]piperazin-1-yl}carbonyl)-1-oxa-8-azaspiro[4.5]dec-3-en-2-one], the Ki on hCCR2b [1] is < 0.05 µM.

As to `CC1=C(C(=O)N2CCN(c3cccc(C(F)(F)F)c3)CC2)C2(CCN(CCc3ccc(F)cc3)CC2)OC1=O` [Example 3, 8-[2-(4-fluorophenyl)ethyl]-3-methyl-4-({4-[3-(trifluoromethyl)phenyl]piperazin-1-yl}carbonyl)-1-oxa-8-azaspiro[4.5]dec-3-en-2-one], the Ki at hCCR2b [1] is < 0.05 µM.

As to `COCCN1CCC2(CC1)OC(=O)C(C)=C2C(=O)N1CCN(c2cccc(C(F)(F)F)c2)CC1` [Example 4, 8-(2-methoxyethyl)-3-methyl-4-({4-[3-(trifluoromethyl)phenyl]piperazin-1-yl}carbonyl)-1-oxa-8-azaspiro[4.5]dec-3-en-2-one], the Ki on hCCR2b [1] was < 0.05 µM.

With `CC1=C(C(=O)N2CCN(c3cccc(C(F)(F)F)c3)CC2)C2(CCN(CCCc3ccccc3)CC2)OC1=O` [Example 5, 3-methyl-8-(3-phenylpropyl)-4-({4-[3-(trifluoromethyl)phenyl]piperazin-1-yl}carbonyl)-1-oxa-8-azaspiro[4.5]dec-3-en-2-one], at hCCR2b [1], the Ki was < 0.05 µM.

On to `COc1ccc(CCN2CCC3(CC2)OC(=O)C(C)=C3C(=O)N2CCN(c3cccc(C(F)(F)F)c3)CC2)cc1` [Example 6, 8-[2-(4-methoxyphenyl)ethyl]-3-methyl-4-({4-[3-(trifluoromethyl)phenyl]piperazin-1-yl]carbonyl)-1-oxa-8-azaspiro[4.5]dec-3-en-2-one, dihydrochloride salt], for which, on hCCR2b [1], the Ki was < 0.05 µM.
